This note sets out measurements from PubChem BioAssay AID256 (DTP/NCI, 2004).

Values joined by “and” are separate entries in the source; they are usually repeats but may differ in a detail not shown here. Equal entries are not always repeated. Inconclusive results and toxic doses are left out.

This assay concerns CD2F1 mice, L1210 leukemia ip, survival T/C. Description: NCI In Vivo Anticancer Drug Screen. Data for tumor model L1210 Leukemia (intraperitoneal) in CD2F1 (CDF1) mice. To be noted: higher = longer survival. In outline: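 Ratio T/C, where T is the treated-group value and C the vehicle-dosed control value, from mice implanted with a transplantable tumor.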
[1] abbreviates: endpoint: mean survival time, dose: 1.0 mg/kg/injection, schedule: Q01DX009 (ip), vehicle: water.
Setting [2] is: endpoint: mean survival time, dose: 100.0 mg/kg/injection, schedule: Q04DX003 (ip), vehicle: saline.
Setting [3] is: endpoint: mean survival time, dose: 200.0 mg/kg/injection, schedule: Q04DX003 (ip), vehicle: saline.
Where [4] appears, read: endpoint: mean survival time, dose: 100.0 mg/kg/injection, schedule: Q01DX009 (ip), vehicle: saline with Tween-80.
Where [5] appears, read: endpoint: mean survival time, dose: 200.0 mg/kg/injection, schedule: Q01DX009 (ip), vehicle: saline with Tween-80.

As for `C/C(=N\N=C(/C)c1cccs1)c1cccs1`, the T/C (endpoint: median survival time, dose: 25.0 mg/kg/injection, schedule: Q04DX002 (ip), vehicle: saline with Tween-80) was 90 % of control; the T/C (endpoint: median survival time, dose: 50.0 mg/kg/injection, schedule: Q04DX002 (ip), vehicle: saline with Tween-80) is 90 % of control; the T/C (endpoint: median survival time, dose: 100.0 mg/kg/injection, schedule: Q04DX002 (ip), vehicle: saline with Tween-80) was 100 % of control; the T/C (endpoint: median survival time, dose: 200.0 mg/kg/injection, schedule: Q04DX002 (ip), vehicle: saline with Tween-80) was 90 % of control.

Turning to `CC(CCCOS(C)(=O)=O)OS(C)(=O)=O` (stereo not given), the T/C is, setting by setting: (endpoint: mean survival time, dose: 25.0 mg/kg/injection, schedule: Q04DX002 (ip), vehicle: Klucel (hydroxypropylcellulose) (HPC)) 105 % of control; (endpoint: mean survival time, dose: 50.0 mg/kg/injection, schedule: Q04DX002 (ip), vehicle: Klucel (hydroxypropylcellulose) (HPC)) 108 % of control; (endpoint: mean survival time, dose: 100.0 mg/kg/injection, schedule: Q04DX002 (ip), vehicle: Klucel (hydroxypropylcellulose) (HPC)) 94 % of control.

`CCc1ccc(C(=O)N/N=C(\C)[C@]2(O)Cc3c(O)c4c(c(O)c3[C@@H](OC3CC(N)C(O)C(C)O3)C2)C(=O)c2c(OC)cccc2C4=O)cc1` (stereo not given in full): the T/C reads like this: (endpoint: mean survival time, dose: 0.25 mg/kg/injection, schedule: Q01DX009 (ip), vehicle: water) 100 % of control; (endpoint: mean survival time, dose: 0.5 mg/kg/injection, schedule: Q01DX009 (ip), vehicle: water) 110 % of control; under setting [1], 112 % of control; (endpoint: mean survival time, dose: 8.0 mg/kg/injection, schedule: Q01DX009 (ip), vehicle: water) 91 % of control.

For the compound `CN(C)N=Nc1ccccc1C(=O)NNC(=O)CC#N`, the T/C is, setting by setting: (endpoint: mean survival time, dose: 18.75 mg/kg/injection, schedule: Q01DX009 (ip), vehicle: Klucel (hydroxypropylcellulose) (HPC)) 88 % of control and 97 % of control; (endpoint: mean survival time, dose: 37.5 mg/kg/injection, schedule: Q01DX009 (ip), vehicle: Klucel (hydroxypropylcellulose) (HPC)) 92 % of control and 100 % of control; (endpoint: mean survival time, dose: 75.0 mg/kg/injection, schedule: Q01DX009 (ip), vehicle: Klucel (hydroxypropylcellulose) (HPC)) 93 % of control and 111 % of control; (endpoint: mean survival time, dose: 150.0 mg/kg/injection, schedule: Q01DX009 (ip), vehicle: Klucel (hydroxypropylcellulose) (HPC)) 113 % of control and 102 % of control; (endpoint: mean survival time, dose: 300.0 mg/kg/injection, schedule: Q01DX009 (ip), vehicle: Klucel (hydroxypropylcellulose) (HPC)) 120 % of control and 111 % of control.

On to `Cc1ccc(S(=O)(=O)N2CCC(=O)c3ccc(Cl)cc32)cc1`, for which the T/C is 101 % of control (endpoint: mean survival time, dose: 100.0 mg/kg/injection, schedule: Q01DX009 (ip), vehicle: Klucel (hydroxypropylcellulose) (HPC)); 93 % of control (endpoint: mean survival time, dose: 200.0 mg/kg/injection, schedule: Q01DX009 (ip), vehicle: Klucel (hydroxypropylcellulose) (HPC)); 96 % of control (endpoint: mean survival time, dose: 400.0 mg/kg/injection, schedule: Q01DX009 (ip), vehicle: Klucel (hydroxypropylcellulose) (HPC)).

`C[n+]1ccc(Nc2ccc(NC(=O)c3ccc(Nc4cc[n+](C)c5ccc([N+](=O)[O-])cc45)cc3)cc2)cc1`: the T/C by setting is: under setting [1], 103 % of control; (endpoint: mean survival time, dose: 2.0 mg/kg/injection, schedule: Q01DX009 (ip), vehicle: water) 110 % of control; (endpoint: mean survival time, dose: 4.0 mg/kg/injection, schedule: Q01DX009 (ip), vehicle: water) 116 % of control; (endpoint: mean survival time, dose: 16.0 mg/kg/injection, schedule: Q01DX009 (ip), vehicle: water) 174 % of control; (endpoint: mean survival time, dose: 32.0 mg/kg/injection, schedule: Q01DX009 (ip), vehicle: water) 223 % of control; (endpoint: mean survival time, dose: 50.0 mg/kg/injection, schedule: Q04DX003 (ip), vehicle: saline) 162 % of control. The T/C reads like this: under setting [2], 186 % of control; under setting [3], 201 % of control.

In the case of `CNC(C)COc1ccccc1` (stereo not given), the T/C (endpoint: mean survival time, dose: 100.0 mg/kg/injection, schedule: Q04DX003 (ip), vehicle: saline with Tween-80) was 86 % of control.

Regarding `CC(C)(C#N)N1CCCCC1`, the T/C was 107 % of control (endpoint: mean survival time, dose: 1.25 mg/kg/injection, schedule: Q01DX009 (ip), vehicle: saline with Tween-80); 104 % of control (endpoint: mean survival time, dose: 2.5 mg/kg/injection, schedule: Q01DX009 (ip), vehicle: saline with Tween-80); 98 % of control (endpoint: mean survival time, dose: 5.0 mg/kg/injection, schedule: Q01DX009 (ip), vehicle: saline with Tween-80); 101 % of control (endpoint: mean survival time, dose: 5.0 mg/kg/injection, schedule: Q04DX003 (ip), vehicle: saline).

In the case of `Oc1ccc(I)cc1`, the T/C was 96 % of control (endpoint: mean survival time, dose: 100.0 mg/kg/injection, schedule: Q01DX009 (ip), vehicle: other); 103 % of control (endpoint: mean survival time, dose: 200.0 mg/kg/injection, schedule: Q01DX009 (ip), vehicle: other); 111 % of control (endpoint: mean survival time, dose: 400.0 mg/kg/injection, schedule: Q01DX009 (ip), vehicle: other).

Regarding `O=c1cc(-c2ccccc2)ss1`, the T/C was 104 % of control (endpoint: mean survival time, dose: 100.0 mg/kg/injection, schedule: Q04DX003 (ip), vehicle: Klucel (hydroxypropylcellulose) (HPC)); 100 % of control (endpoint: mean survival time, dose: 200.0 mg/kg/injection, schedule: Q04DX003 (ip), vehicle: Klucel (hydroxypropylcellulose) (HPC)); 105 % of control (endpoint: mean survival time, dose: 400.0 mg/kg/injection, schedule: Q04DX003 (ip), vehicle: Klucel (hydroxypropylcellulose) (HPC)).

Regarding `COC1C(/C=C/C(C)=O)OC2OC(C)(C)OC21` (stereo not given), the T/C (endpoint: mean survival time, dose: 6.25 mg/kg/injection, schedule: Q01DX009 (ip), vehicle: saline) was 110 % of control; the T/C (endpoint: mean survival time, dose: 12.5 mg/kg/injection, schedule: Q01DX009 (ip), vehicle: saline) was 110 % of control; the T/C (endpoint: mean survival time, dose: 25.0 mg/kg/injection, schedule: Q01DX009 (ip), vehicle: saline) was 95 % of control; the T/C (endpoint: mean survival time, dose: 50.0 mg/kg/injection, schedule: Q01DX009 (ip), vehicle: saline) is 103 % of control; the T/C (endpoint: mean survival time, dose: 100.0 mg/kg/injection, schedule: Q01DX009 (ip), vehicle: saline) was 109 % of control; the T/C (endpoint: mean survival time, dose: 200.0 mg/kg/injection, schedule: Q01DX009 (ip), vehicle: saline) was 116 % of control.

For the compound `Cc1ccc(CO)cc1C`, the T/C reads like this: (endpoint: mean survival time, dose: 50.0 mg/kg/injection, schedule: Q01DX009 (ip), vehicle: saline with Tween-80) 101 % of control; under setting [4], 97 % of control; under setting [5], 101 % of control.

For the compound `CN(C)CCCN=Cc1cc(Cl)ccc1O.CN(C)CCCN=Cc1cc(Cl)ccc1O.[Ni+2]`, the T/C reads like this: (endpoint: mean survival time, dose: 6.25 mg/kg/injection, schedule: Q01DX009 (ip), vehicle: saline with Tween-80) 93 % of control; (endpoint: mean survival time, dose: 12.5 mg/kg/injection, schedule: Q01DX009 (ip), vehicle: saline with Tween-80) 93 % of control; (endpoint: mean survival time, dose: 25.0 mg/kg/injection, schedule: Q01DX009 (ip), vehicle: saline with Tween-80) 100 % of control.

As to `CCCCCCCCCCCCCCCCS(=O)CC(O)COC(=O)c1ccc(C(=O)OCC(O)CS(=O)CCCCCCCCCCCCCCCC)cc1` (stereo not given), the T/C is 96 % of control (endpoint: mean survival time, dose: 12.5 mg/kg/injection, schedule: Q01DX009 (ip), vehicle: saline + Tween-80 + alcohol); 91 % of control (endpoint: mean survival time, dose: 12.5 mg/kg/injection, schedule: Q01DX009 (ip), vehicle: saline + alcohol); 88 % of control (endpoint: mean survival time, dose: 25.0 mg/kg/injection, schedule: Q01DX009 (ip), vehicle: saline + Tween-80 + alcohol); 105 % of control (endpoint: mean survival time, dose: 25.0 mg/kg/injection, schedule: Q01DX009 (ip), vehicle: saline + alcohol); 90 % of control (endpoint: mean survival time, dose: 50.0 mg/kg/injection, schedule: Q01DX009 (ip), vehicle: saline + Tween-80 + alcohol); 105 % of control (endpoint: mean survival time, dose: 50.0 mg/kg/injection, schedule: Q01DX009 (ip), vehicle: saline + alcohol). In addition, the T/C (endpoint: mean survival time, dose: 100.0 mg/kg/injection, schedule: Q01DX009 (ip), vehicle: saline + Tween-80 + alcohol) was 107 % of control; the T/C (endpoint: mean survival time, dose: 100.0 mg/kg/injection, schedule: Q01DX009 (ip), vehicle: saline + alcohol) was 91 % of control; the T/C (endpoint: mean survival time, dose: 200.0 mg/kg/injection, schedule: Q01DX009 (ip), vehicle: saline + Tween-80 + alcohol) was 107 % of control; the T/C (endpoint: mean survival time, dose: 200.0 mg/kg/injection, schedule: Q01DX009 (ip), vehicle: saline + alcohol) was 97 % of control; the T/C (endpoint: mean survival time, dose: 400.0 mg/kg/injection, schedule: Q01DX009 (ip), vehicle: saline + alcohol) was 105 % of control.

Consider `O=C1CCC2=C(CCC3(C2)OCCO3)N1`, for which the T/C under setting [4] was 94 % of control; the T/C under setting [2] was 96 % of control; the T/C under setting [5] was 102 % of control; the T/C under setting [3] was 103 % of control; the T/C (endpoint: mean survival time, dose: 400.0 mg/kg/injection, schedule: Q01DX009 (ip), vehicle: saline with Tween-80) was 90 % of control; the T/C (endpoint: mean survival time, dose: 400.0 mg/kg/injection, schedule: Q04DX003 (ip), vehicle: saline) was 100 % of control.

Consider `O=S(=O)(O)C(Nc1ccccn1)c1ccccc1` (stereo not given), for which the T/C (endpoint: mean survival time, dose: 25.0 mg/kg/injection, schedule: Q01DX001 (ip), vehicle: saline with Tween-80) is 98 % of control; the T/C (endpoint: mean survival time, dose: 50.0 mg/kg/injection, schedule: Q01DX001 (ip), vehicle: saline with Tween-80) was 106 % of control; the T/C (endpoint: mean survival time, dose: 100.0 mg/kg/injection, schedule: Q01DX001 (ip), vehicle: saline with Tween-80) is 106 % of control.
